Measurements reported in paper PMC6209770 (Frontiers in Pharmacology, 2018).
“And” between values parts separate entries of the source, which are not always exact repeats. Equal entries are not always repeated. Where two headings read alike, the source gives them in different places.

How the values were obtained:
mice [1] = assay: Spontaneous locomotor activity; format: in vivo
Experimental: Photoresistor actometers (Ugo Basile, Italy) connected to a counter for the recording of light-beam interruptions were used to investigate the effect of the compound on locomotor activity in mice. Locomotor activity was counted as the number of the light-beam crossing. It was recorded individually for each animal. After administration of the tested compound, each mouse was placed separately in a cage for 30 min habituation period. After that time, the parameter was measured for 1 min and 5 min (i.e., time equal to the observation period in four plate test and elevated plus maze test, respectively). The cages were sanitized with 70% ethanol after each mouse.

D2 receptor = D2 receptor (Homo sapiens, UniProt P14416); assay: cell-based
Experimental: (§1) Serial dilutions were prepared in 96-well microplate in appropriate dilution buffer (HBSS or medium) with 0.1% BSA added, and 8–10 concentrations were tested in duplicates. At least two independent experiments were performed for each type of method. Assays were done according to manufacturer’s protocols.

serotonin levels = tested on: serotonin levels; set-up: method as in Imaizumi et al. (1996); conditions: 3-day treatment with pCPA 200 mg/kg; ref Imaizumi et al. (1996); cited from earlier work
mice [2] = assay: Four plate test after pretreatment with pCPA, WAY-100635 or AMPT; format: in vivo
Experimental: (§2) Mice were placed individually in the four plate apparatus connected to the power source. After a 15 s of habituation period, each mouse crossing from one plate to another (two limbs on one plate, two on another) was punished by an electric shock (0.8 mA, 0.5 s). If the mouse continued running, it received no new shock for the following 3 s. The number of punished crossings was calculated during the 60 s of the test.
We performed the four plate test 30 min after the administration.
Control group received vehicle (1% Tween). […] We performed the four plate test 30 min after the compound administration.

mice [3] = assay: Four plate test; format: in vivo
Experimental: as §2

mice [4] = assay: Elevated plus maze test; format: in vivo
5-HT1A receptor [5] = biological target: T1, 5-HT1A receptor (Homo sapiens, UniProt P08908); assay: SureFire ERK-phosphorylation AlphaLISA assay, CHO-5HT1A cells; conditions: 5-HT1A pERK1/2 assay
T1 sequence (P08908 1-422): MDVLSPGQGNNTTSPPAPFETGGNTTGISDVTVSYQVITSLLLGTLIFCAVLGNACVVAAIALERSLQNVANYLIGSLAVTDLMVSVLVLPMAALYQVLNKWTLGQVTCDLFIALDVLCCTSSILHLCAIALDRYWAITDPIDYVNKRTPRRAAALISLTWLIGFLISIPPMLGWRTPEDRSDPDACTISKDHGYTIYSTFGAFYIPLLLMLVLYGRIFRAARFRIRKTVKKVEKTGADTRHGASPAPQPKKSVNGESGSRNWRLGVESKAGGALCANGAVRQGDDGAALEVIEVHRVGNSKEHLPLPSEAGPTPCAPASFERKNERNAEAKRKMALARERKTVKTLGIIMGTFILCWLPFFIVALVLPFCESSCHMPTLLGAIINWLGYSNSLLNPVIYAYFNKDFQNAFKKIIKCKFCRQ
Experimental: as §1

[6] = biological target: T2, human serotonin 5-HT1A receptor (Homo sapiens, UniProt P08908); assay: cAMP assay (TR-FRET), CHO-K1 cells; conditions: 5-HT1A cAMP assay
T2 sequence (P08908 1-422): T1 sequence (P08908 1-422)

5-HT1A receptor [7] = biological target: T1, 5-HT1A receptor; set-up: expressed in transfected cells; host or cells: CHO (CHO-5HT1A); method as in Kubacka et al., 2016; conditions: 5-HT1A Ca2+ assay, ref Kubacka et al., 2016, cited from earlier work
5-HT1A receptor [8] = biological target: T1, 5-HT1A receptor; assay: Tango LiveBLAzer β-arrestin recruitment assay, HTR1A-bla U2OS cells; conditions: 5-HT1A ß-arrestin assay
GABAA receptor = conditions: read-out: GABAA receptors Ki ± SEM; rat cerebral cortex, [3H]-muscimol 1 nM
Experimental: The final incubation mixture (total volume 250 μl) consisted of a 50 μl solution of the test compound, 50 μl of radioligand and 150 μl of diluted membranes or the tissue suspension. The incubation was terminated by rapid filtration over glass fiber filters GF/B (PerkinElmer, United States) using 96-well FilterMate Harvester (PerkinElmer, United States). Five rapid washes were performed with ice-cold 50 mM Tris–HCl buffer (pH 7.4 or 7.6). […] Radioligand binding data were analyzed using iterative curve fitting routines GraphPad Prism 5.0 (GraphPad Software). […] At least two independent experiments were performed for each assay.

5-HT2A receptor = 5-HT2A receptor (Homo sapiens, UniProt P28223); format: cell-based
Experimental: as §1

[9] = antagonist mode, serotonin EC80 (45 nM)
[10] = antagonist mode, serotonin EC80 (120 nM)
[11] = antagonist mode, serotonin EC80 (300 nM)

SMILES: COc1ccccc1N1CCN(CCCOc2cc(C)ccc2C)CC1.Cl [HBK-17, 1-[(2,5-dimethylphenoxy)propyl]-4-(2-methoxyphenyl)piperazine hydrochloride]
- Number of crossings ± SEM (mice [1]; mouse, in vivo, ip, 5 mg/kg): 44.8

SMILES: CN1CCc2cccc3c2[C@H]1Cc1ccc(O)c(O)c1-3 [Apomorphine]
- Emax (D2 receptor; read-out: Agonist mode Emax %): 100%
- Emax (D2 receptor; read-out: Antagonist mode Emax %): 1%

SMILES: N[C@@H](Cc1ccc(Cl)cc1)C(=O)O (racemic) [pCPA, p-Chlorophenylalanine]
- Number of crossings ± SEM (mice [1]; pCPA experiment, pCPA 200 mg/kg): 29.4
- Reduction of serotonin levels in the cortex (serotonin levels): 30%
- Reduction of serotonin levels in the diencephalon (serotonin levels): 35%
- Reduction of serotonin levels in the midbrain (serotonin levels): 24%
- Reduction of serotonin levels in the pons with medulla (serotonin levels): 34%
- Effect on number of punished crossings (mice [2]; pCPA alone, 200 mg/kg i.p., three days): did not influence

SMILES: CC1CCN(CC[C@H]2CCCN2S(=O)(=O)c2cccc(O)c2)CC1 [SB269970]
- Increase in the number of punished crossings vs non-treated control (mice [3]; […] i.p. 30 min before test (but not 1.25 or 5 mg/kg)): 137.5%

SMILES: CCCN(CCC)C1CCc2cccc(O)c2C1 (stereo not drawn) [8-OH-DPAT]
- Increase in time spent in the open arms vs non-treated control (mice [4]; 2 mg/kg, 15 min before test (but not 0.25, 0.5 or 1 mg/kg)): 154.3%
- Effect on number of open arm entries (mice [4]; 8-OH-DPAT doses tested up to 2 mg/kg, 15 min before test): no effect
- Increase in the number of punished crossings (mice [3]; 0.5 mg/kg, 15 min before test (but not 0.25, 1 or 2 mg/kg)): 38.2%

SMILES: COc1ccccc1N1CCN(CC(C(=O)NC(C)(C)C)c2ccccc2)CC1 (stereo not drawn) [WAY-100135]
- Agonist mode Emax % (5-HT1A receptor [5]; agonist mode): 2%
- Antagonist mode Emax % (5-HT1A receptor [5]; [9]): 0%
- Antagonist mode pIC50 (5-HT1A receptor [5]; [9]): 7.90
- Kb (5-HT1A receptor [5]; read-out: Antagonist mode Kb, antagonist mode, serotonin EC80 (45 nM)): 2.7 nM
- Agonist mode Emax % ([6]; agonist mode, 10 μM forskolin): 2%
- Antagonist mode Emax % [6, 10]: 8%
- Antagonist mode pIC50 [6, 10]: 7.9
- Kb ([6]; read-out: Antagonist mode Kb, antagonist mode, serotonin EC80 (120 nM)): 6.4 nM
- Agonist mode Emax % (5-HT1A receptor [7]; agonist mode): 2%
- Antagonist mode Emax % (5-HT1A receptor [7]; antagonist mode): 0%
- Antagonist mode pIC50 (5-HT1A receptor [7]; antagonist mode): 8.3
- Kb (5-HT1A receptor [7]; antagonist mode): 0.8 nM
- Agonist mode Emax % (5-HT1A receptor [8]; agonist mode, relative to serotonin): 1%
- Antagonist mode Emax % (5-HT1A receptor [8]; [11]): 5%
- Antagonist mode pIC50 (5-HT1A receptor [8]; [11]): 8.1
- Kb (5-HT1A receptor [8]; read-out: Antagonist mode Kb, antagonist mode, serotonin EC80 (300 nM)): 5.9 nM

SMILES: CN1C(=O)CN=C(c2ccccc2)c2cc(Cl)ccc21 [Diazepam, diazepam]
- Ki (GABAA receptor): 5.6 ± 0.7 nM
- Increase in number of open arm entries vs non-treated control (mice [4]; mouse, in vivo): 78.5% and 73.9% and 124.6%
- Increase in time spent in the open arms vs non-treated control (mice [4]; mouse, in vivo): 84.6% and 59.9%

SMILES: CC(N)(Cc1ccc(O)cc1)C(=O)O (stereo not drawn) [AMPT, α-methyl-p-tyrosine]
- Number of crossings ± SEM (mice [1]; AMPT experiment, AMPT 100 mg/kg): 24.5
- Effect on number of punished crossings (mice [2]; AMPT alone, 100 mg/kg i.p.): had no effect

SMILES: CC(N)Cc1c[nH]c2ccc(O)cc12 (stereo not drawn) [α-Methylserotonin, α-methylserotonin]
- Agonist mode Emax % (5-HT2A receptor; agonist mode): 100%
- Agonist mode pEC50 (5-HT2A receptor; agonist mode): 8.70
- Antagonist mode Emax % (5-HT2A receptor; antagonist mode): 1%

SMILES: COc1ccccc1N1CCN(CCN(C(=O)C2CCCCC2)c2ccccn2)CC1 [WAY-100635]
- Number of crossings ± SEM (mice [1]; WAY-100635 experiment, WAY-100635 0.3 mg/kg): 27.9
- Effect on number of punished crossings (mice [2]; WAY-100635 alone, 0.3 mg/kg s.c.): did not influence
